Key:
[1] = Pharmacokinetics and intestinal exposure to gemcitabine after oral dosing in mice; assay type: in vivo; details: mice, oral, 20 mg-eq. gemcitabine/kg
Experimental: Blood samples (0.5 mL) were obtained by cardiac puncture from 4 animals at each time point (1, 5, 10, 15, 30, 45 minutes and 1, 2, 4, 6 and 24 hr post-dosing). Samples were immediately transferred to tubes containing 10 μL of tetrahydrouridine (50 μg/mL in 50% methanol/water) to prevent further deamination and aliquots (100 μL) were quenched with a solution of 1% w/w formic acid in acetonitrile (300 μL). Quenched blood samples were stored at −80° C. until analyzed. Following collection of blood samples, the small intestine of each animal was removed, rinsed with saline, scraped to remove the mucosal layer, and the mucosal tissue was transferred to a pre-weighed vial containing 10 μL of tetrahydrouridine (50 μg/mL in 50% methanol/water). Sample vials were snap frozen in dry ice/acetone and stored at −80° C. until analyzed. Mucosal tissue samples were diluted 1:10 in water and 100 μL of the resulting sample was added to 400 μL of methanol.

[2] = biological target: T1, ENT1 (Homo sapiens, UniProt Q99808); experiment: Mass spectroscopy analysis of active transport into oocytes expressing ENT1; assay type: cell-based; details: 0.1-3 mM, 10-30 minutes, LC/MS/MS, vs non-expressing oocytes
T1 construct: expressed in transfected cells; host or cells: Xenopus laevis oocytes injected with RNA
T1 sequence (Q99808 1-456): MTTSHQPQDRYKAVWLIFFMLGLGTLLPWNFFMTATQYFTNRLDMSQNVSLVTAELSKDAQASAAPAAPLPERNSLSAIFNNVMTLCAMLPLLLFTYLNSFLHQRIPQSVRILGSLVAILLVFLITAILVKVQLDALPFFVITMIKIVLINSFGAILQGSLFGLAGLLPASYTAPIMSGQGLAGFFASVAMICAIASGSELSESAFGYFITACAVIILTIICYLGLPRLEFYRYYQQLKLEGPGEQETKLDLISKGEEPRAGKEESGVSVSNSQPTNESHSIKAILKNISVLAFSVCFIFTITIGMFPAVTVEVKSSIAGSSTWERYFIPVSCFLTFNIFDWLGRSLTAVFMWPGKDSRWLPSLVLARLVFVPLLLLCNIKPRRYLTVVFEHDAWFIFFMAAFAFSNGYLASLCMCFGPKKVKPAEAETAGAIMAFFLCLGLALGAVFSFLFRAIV
Experimental: (§1) (b) Mass Spectroscopy Analysis of Active Transport of Compounds into Oocytes Expressing CNT1, CNT2, CNT3, ENT1 or ENT2
(§2) Transporters were expressed in oocytes as described above (a). Experiments were performed 3-5 days following injection. Oocytes were incubated with 0.1-3 mM of compounds for 10-30 minutes in frog ringers solution (90 mM NaCl, 2 mM KCl, 1 mM MgCl2, 2 mM CaCl2, 10 mM NaHEPES, pH 7.45, and 1% BSA). Experiments were performed at room temperature. For each compound, 4-7 oocytes were incubated for each transporter or non-expressing control. Following incubation, oocytes were rapidly washed 4 times in frog ringers solution, and placed one oocyte per well in a 96 well plate. Oocytes were homogenized in 0.15 mL solution containing 50% ethanol:water or 50% methanol:water. Precipitated protein or cellular matter was pelleted by spinning plates at 3000 RPM for 5 minutes. The solvent layer containing the extracted compounds was removed from wells.
(§3) The concentration of each compound in the oocyte extract was determined by analytical LC/MS/MS. Briefly, concentrations of test compound were determined using an API 2000 LC/MS/MS instrument equipped with an Agilent 1100 binary pump and a CTC HTS-PAL autosampler. The column was a Phenomenex hydro-RP 4.6×50 mm column. The mobile phase was water with 0.1% formic acid, 0.005% heptafluorobutyric acid (A) and acetonitrile with 0.1% formic acid, 0.005% heptafluorobutyric acid (B). The gradient condition was: 5% B for 0.5 min, then to 95% B in 2.5 min, then maintained at 95% B for 1 min. The mobile phase was returned to 5% B for 2 min. A TurboIonSpray source was used on the API 2000. The analysis was done in positive ion mode and an MRM transition of each analyte was first optimized using the standard solution. 10 μL of the samples were injected onto LC/MS/MS system for analysis. The peaks were integrated using Analyst 1.2 quantitation software. Specific uptake was determined by comparison of average uptake in oocytes expressing transporters with uptake in non-expressing oocytes.

[3] = biological target: T2, CNT1 (Homo sapiens, UniProt O00337); experiment: Mass spectroscopy analysis of active transport into oocytes expressing CNT1; assay type: cell-based; details: 0.1-3 mM, 10-30 minutes, LC/MS/MS, vs non-expressing oocytes
T2 construct: expressed in transfected cells; host or cells: Xenopus laevis oocytes injected with in vitro transcribed RNA
T2 sequence (O00337 1-649): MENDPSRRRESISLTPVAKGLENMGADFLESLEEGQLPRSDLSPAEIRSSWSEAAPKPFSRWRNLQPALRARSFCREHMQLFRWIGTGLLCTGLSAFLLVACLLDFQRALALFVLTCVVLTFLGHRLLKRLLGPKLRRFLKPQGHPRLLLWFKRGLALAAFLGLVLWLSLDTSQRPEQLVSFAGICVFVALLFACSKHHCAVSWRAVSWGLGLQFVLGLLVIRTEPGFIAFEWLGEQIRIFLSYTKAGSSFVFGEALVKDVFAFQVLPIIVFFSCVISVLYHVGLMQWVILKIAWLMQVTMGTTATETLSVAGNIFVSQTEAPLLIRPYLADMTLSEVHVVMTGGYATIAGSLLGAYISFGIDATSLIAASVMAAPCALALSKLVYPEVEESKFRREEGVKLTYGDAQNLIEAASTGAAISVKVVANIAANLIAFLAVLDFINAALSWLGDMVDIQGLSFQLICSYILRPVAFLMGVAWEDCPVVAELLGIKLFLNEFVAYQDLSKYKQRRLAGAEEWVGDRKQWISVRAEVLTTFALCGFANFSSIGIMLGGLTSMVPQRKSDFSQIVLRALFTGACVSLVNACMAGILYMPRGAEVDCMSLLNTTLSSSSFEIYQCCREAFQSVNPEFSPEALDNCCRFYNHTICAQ
Description: (§4) Human CNT1, CNT2 and CNT3 transporter cDNAs were subcloned into a modified pGEM plasmid that contains 5′ and 3′ untranslated sequences from the Xenopus β-actin gene. These sequences increase RNA stability and protein expression. Plasmid cDNA was linear zed and used as template for in vitro transcription (Epicentre Technologies transcription kit, 4:1 methylated:non-methylated GTP).
as §1, §2
The concentration of each compound in the oocyte extract was determined by analytical LC/MS/MS. Briefly, concentrations of test compound were determined using an API 2000 LC/MS/MS instrument equipped with an Agilent 1100 binary pump and a CTC HTS-PAL autosampler. The column was a Phenomenex hydro-RP 4.6×50 mm column. The mobile phase was water with 0.1% formic acid, 0.005% heptafluorobutyric acid (A) and acetonitrile with 0.1% formic acid, 0.005% heptafluorobutyric acid (B). […] The peaks were integrated using Analyst 1.2 quantitation software. Specific uptake was determined by comparison of average uptake in oocytes expressing transporters with uptake in non-expressing oocytes.

[4] = biological target: T3, CNT3 (Homo sapiens, UniProt Q9HAS3); experiment: Mass spectroscopy analysis of active transport into oocytes expressing CNT3; assay type: cell-based; details: 0.1-3 mM, 10-30 minutes, LC/MS/MS, vs non-expressing oocytes
T3 construct: expressed in transfected cells; host or cells: Xenopus laevis oocytes injected with in vitro transcribed RNA
T3 sequence (Q9HAS3 1-691): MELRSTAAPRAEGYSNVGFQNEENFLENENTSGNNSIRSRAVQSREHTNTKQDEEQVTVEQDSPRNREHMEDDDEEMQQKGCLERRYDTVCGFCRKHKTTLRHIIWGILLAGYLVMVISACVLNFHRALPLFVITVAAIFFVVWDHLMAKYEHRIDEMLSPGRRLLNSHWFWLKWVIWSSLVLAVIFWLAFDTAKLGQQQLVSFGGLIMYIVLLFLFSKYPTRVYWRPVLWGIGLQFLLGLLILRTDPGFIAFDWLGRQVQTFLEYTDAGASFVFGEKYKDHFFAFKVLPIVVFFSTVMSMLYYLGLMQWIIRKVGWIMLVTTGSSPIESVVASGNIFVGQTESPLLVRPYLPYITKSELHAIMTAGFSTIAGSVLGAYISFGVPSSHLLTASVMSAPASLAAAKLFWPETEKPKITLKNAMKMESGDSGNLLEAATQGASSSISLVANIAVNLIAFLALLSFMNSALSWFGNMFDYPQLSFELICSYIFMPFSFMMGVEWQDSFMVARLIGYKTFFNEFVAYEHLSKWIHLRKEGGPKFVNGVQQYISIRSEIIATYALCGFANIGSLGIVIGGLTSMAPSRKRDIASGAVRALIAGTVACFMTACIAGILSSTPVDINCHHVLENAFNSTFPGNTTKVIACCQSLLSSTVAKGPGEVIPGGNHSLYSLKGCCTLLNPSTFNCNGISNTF
Description: as §4, §1, §2, §3

[5] = biological target: T4, ENT2 (Homo sapiens, UniProt Q14542); experiment: Mass spectroscopy analysis of active transport into oocytes expressing ENT2; assay type: cell-based; details: 0.1-3 mM, 10-30 minutes, LC/MS/MS, vs non-expressing oocytes
T4 construct: expressed in transfected cells; host or cells: Xenopus laevis oocytes injected with RNA
T4 sequence (Q14542 1-456): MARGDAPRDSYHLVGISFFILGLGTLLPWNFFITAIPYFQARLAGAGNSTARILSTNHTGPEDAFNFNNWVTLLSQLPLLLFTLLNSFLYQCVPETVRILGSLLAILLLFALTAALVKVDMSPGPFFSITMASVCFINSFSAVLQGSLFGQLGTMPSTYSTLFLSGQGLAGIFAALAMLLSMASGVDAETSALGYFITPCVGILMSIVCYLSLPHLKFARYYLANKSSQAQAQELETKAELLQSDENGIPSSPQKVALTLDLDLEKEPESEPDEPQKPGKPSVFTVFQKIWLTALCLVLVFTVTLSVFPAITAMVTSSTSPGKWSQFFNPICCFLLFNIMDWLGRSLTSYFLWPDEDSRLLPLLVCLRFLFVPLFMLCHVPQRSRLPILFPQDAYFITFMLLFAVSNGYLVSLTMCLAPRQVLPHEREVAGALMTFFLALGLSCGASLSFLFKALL
Experimental: as §1, §2, §3

Row | Oral bioavailability as gemcitabine (in words) [1] | Specific uptake into oocytes expressing ENT1 [2] | Specific uptake into oocytes expressing CNT1 [3] | Specific uptake into oocytes expressing CNT3 [4] | Specific uptake into oocytes expressing ENT2 [5] | Compound
1 | substantial oral bioavailability | specific uptake was observed |  | specific uptake was observed | specific uptake was observed | O=C(Nc1ccn([C@@H]2O[C@H](CO)[C@@H](O)C2(F)F)c(=O)n1)OCC(F)(F)F [Compound 36, β-1-(4-(1,1,1-Trifluoroethyl)oxycarbonylamino-2-oxo-1H-pyrimidin-1-yl)-2-deoxy-2,2-difluororibose]
2 | substantial oral bioavailability | Significant uptake over background | Significant uptake over background | Significant uptake over background | Significant uptake over background | C=C(C)OC(=O)Nc1ccn([C@@H]2O[C@H](CO)[C@@H](O)C2(F)F)c(=O)n1 [Compound 38, β-1-(4-(Propen-2-yl)oxycarbonylamino-2-oxo-1H-pyrimidin-1-yl)-2-deoxy-2,2-difluororibose]
3 | substantial oral bioavailability | Significant uptake over background | Significant uptake over background | Significant uptake over background | Significant uptake over background | CC(C)(C)C(=O)OCCCC(=O)Nc1ccn([C@@H]2O[C@H](CO)[C@@H](O)C2(F)F)c(=O)n1 [Compound 62, β-1-[4-(4-Pivaloyloxybutyroylamino)-2-oxo-1H-pyrimidin-1-yl]-2-deoxy-2,2-difluororibose]
4 | substantial oral bioavailability |  |  |  |  | CC(C)(C)C(=O)OC(OC(=O)NCCOC(=O)Nc1ccn([C@@H]2O[C@H](CO)[C@@H](O)C2(F)F)c(=O)n1)C(C)(C)C (stereo partly shown) [Compound 63]

Continued, compound first:

Row | Compound | Oral bioavailability as gemcitabine (in words) [1] | Specific uptake into oocytes expressing ENT1 [2] | Specific uptake into oocytes expressing CNT1 [3] | Specific uptake into oocytes expressing CNT3 [4] | Specific uptake into oocytes expressing ENT2 [5]
5 | CC(C)[C@H](N)C(=O)O[C@@H]1[C@@H](CO)O[C@@H](n2ccc(N)nc2=O)C1(F)F [Compound 3, β-1-(4-Amino-2-oxo-1H-pyrimidin-1-yl)-3-O-(L-valinyl)-2-deoxy-2,2-difluororibose] | substantial oral bioavailability |  |  |  | 
6 | CCOC(=O)Nc1ccn([C@@H]2O[C@H](CO)[C@@H](O)C2(F)F)c(=O)n1 [Compound 11, β-1-(4-Ethoxycarbonylamino-2-oxo-1H-pyrimidin-1-yl)-2-deoxy-2,2-difluororibose] | substantial oral bioavailability | Significant uptake over background | Significant uptake over background | Significant uptake over background | Significant uptake over background
7 | CCCCCOC(=O)Nc1ccn([C@@H]2O[C@H](CO)[C@@H](O)C2(F)F)c(=O)n1 [Compound 26, β-1-(4-Pentyloxycarbonylamino-2-oxo-1H-pyrimidin-1-yl)-2-deoxy-2,2-difluororibose] | substantial oral bioavailability | specific uptake was observed |  | specific uptake was observed | specific uptake was observed
